One assay addresses Human Full Length PARG (Homo sapiens (Human), UniProt Q86W56). The assay is described as follows: PARG enzyme assay (TR-FRET). Type of assay: biochemical. Background: TR-FRET usually uses a lanthanide donor and a delayed reading to cut background.
The test system of another assay is PARG in HeLa cell line. The assay is described as follows: PARG cell assay (PAR chain immunofluorescence after MMS). Type of assay: cell-based. As to conditions: HeLa cells. The method, boiled down: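 HeLa cells were dosed with compound for 1 h, then given MMS at 50 μg/mL final for a further hour. Cells were methanol-fixed, permeabilised and stained overnight at 4° C with anti-PAR monoclonal antibody. Retained nuclear PAR chains, detected by indirect immunofluorescence, indicate PARG inhibition.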

[1] abbreviates: Homo sapiens, MMS treatment, read-out: PARG Cell IC50.
Setting [2] is: MMS treatment, read-out: PARG Cell IC50.
[3] abbreviates: read-out: PARG Biochem IC50 Geomean.
The mark [4] stands for this setting: MMS 50 μg/mL, read-out: PARG Cell IC50 Geomean.
[5] abbreviates: Homo sapiens, MMS 50 μg/mL, read-out: PARG Cell IC50 Geomean.

Where two headings read alike, the source gives them in different places.

Chain of Human Full Length PARG (Q86W56 whole entry): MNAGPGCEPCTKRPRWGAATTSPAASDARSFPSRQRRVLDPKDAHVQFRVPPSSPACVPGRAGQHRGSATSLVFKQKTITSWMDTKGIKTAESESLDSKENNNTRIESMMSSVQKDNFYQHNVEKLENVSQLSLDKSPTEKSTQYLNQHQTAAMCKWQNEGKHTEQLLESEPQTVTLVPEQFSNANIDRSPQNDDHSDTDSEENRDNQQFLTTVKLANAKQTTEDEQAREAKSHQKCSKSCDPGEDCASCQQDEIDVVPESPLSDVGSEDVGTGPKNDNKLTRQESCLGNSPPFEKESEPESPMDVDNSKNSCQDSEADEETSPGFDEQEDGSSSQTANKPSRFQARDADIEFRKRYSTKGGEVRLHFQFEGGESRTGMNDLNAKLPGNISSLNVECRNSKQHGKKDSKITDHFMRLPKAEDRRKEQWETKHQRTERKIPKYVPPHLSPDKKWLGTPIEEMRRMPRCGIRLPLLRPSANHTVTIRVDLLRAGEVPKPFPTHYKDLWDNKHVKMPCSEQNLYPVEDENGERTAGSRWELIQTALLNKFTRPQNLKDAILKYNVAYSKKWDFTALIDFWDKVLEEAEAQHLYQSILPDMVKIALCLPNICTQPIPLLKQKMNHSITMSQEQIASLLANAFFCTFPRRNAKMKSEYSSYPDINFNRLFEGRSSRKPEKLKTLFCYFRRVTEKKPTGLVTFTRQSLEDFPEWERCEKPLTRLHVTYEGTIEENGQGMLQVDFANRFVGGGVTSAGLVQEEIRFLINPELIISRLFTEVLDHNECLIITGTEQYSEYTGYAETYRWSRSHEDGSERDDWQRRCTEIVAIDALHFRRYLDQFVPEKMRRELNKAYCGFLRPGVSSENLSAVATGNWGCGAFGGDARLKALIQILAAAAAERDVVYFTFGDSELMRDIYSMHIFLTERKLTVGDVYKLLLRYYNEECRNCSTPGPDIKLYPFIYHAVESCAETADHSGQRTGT

As usually defined, the IC50 is the point on the concentration scale where inhibition reaches its midpoint. As to `Cn1cc(Cn2c(=O)c3cc(S(=O)(=O)NC4(CF)CC4)ccc3n(CCC#N)c2=O)cn1` [Example 574, 1-(2-Cyanoethyl)-N-[1-(fluoromethyl)cyclopropyl]-3-[(1-methylpyrazol-4-yl)methyl]-2,4-dioxo-quinazoline-6-sulfonamide], the IC50 is 170 nM at Human Full Length PARG (read-out: PARG Biochem IC50) and 530 nM in the assay with PARG in HeLa cell line (setting [1]).

`C#CCn1c(=O)n(Cc2cnn(C)c2)c(=O)c2cc(S(=O)(=O)NC3(CF)CC3)ccc21` [Example 440, N-[1-(Fluoromethyl)cyclopropyl]-3-[(1-methylpyrazol-4-yl)methyl]-2,4-dioxo-1-prop-2-ynyl-quinazoline-6-sulfonamide]: the IC50 is 68 nM on Human Full Length PARG (read-out: PARG Biochem IC50) and 50 nM in the assay on PARG in HeLa cell line (setting [2]).

On to `Cc1cc(Cn2nc(NC3CCOCC3)c3ccc(S(=O)(=O)NC4(C)CC4)cc3c2=O)on1` [Example 306], for which the results for the IC50 on Human Full Length PARG (setting [3]) and in the assay with PARG in HeLa cell line (setting [4]) were 367 nM and 471 nM, respectively.

On to `CCN(CC)CCn1c(=O)n(Cc2cnn(C)c2)c(=O)c2cc(S(=O)(=O)NC3(CF)CC3)ccc21` [Example 611, 1-[2-(Diethylamino)ethyl]-N-[1-(fluoromethyl)cyclopropyl]-3-[(1-methylpyrazol-4-yl)methyl]-2,4-dioxo-quinazoline-6-sulfonamide], for which the IC50 on Human Full Length PARG (read-out: PARG Biochem IC50) was 113 nM; with PARG in HeLa cell line (setting [1]), 249 nM.

`Cc1noc(C)c1Cn1c(=O)n(Cc2cnn(C)c2)c(=O)c2cc(S(=O)(=O)NC3(CF)CC3)ccc21` [Example 545, 1-[(3,5-Dimethylisoxazol-4-yl)methyl]-N-[1-(fluoromethyl)cyclopropyl]-3-[(1-methylpyrazol-4-yl)methyl]-2,4-dioxo-quinazoline-6-sulfonamide]: the IC50 on Human Full Length PARG (read-out: PARG Biochem IC50) was found to be 145 nM; with PARG in HeLa cell line (setting [1]), 168 nM.

For `Cc1cc(Cn2c(=O)c3cc(S(=O)(=O)NC4(C)CC4)ccc3n(CC3CCOC3)c2=O)on1` (centres unmarked) [Example 268], the IC50 is 111 nM on Human Full Length PARG (setting [3]) and 217 nM in the assay on PARG in HeLa cell line (setting [5]).

Consider `Cn1cc(Cn2c(=O)c3cc(S(=O)(=O)NC4(CF)CC4)ccc3n(Cc3cnn(C)c3)c2=O)cn1` [Example 595, N-[1-(Fluoromethyl)cyclopropyl]-1,3-bis[(1-methylpyrazol-4-yl)methyl]-2,4-dioxo-quinazoline-6-sulfonamide], for which the IC50 stood at 48 nM on Human Full Length PARG (read-out: PARG Biochem IC50) and 134 nM with PARG in HeLa cell line (setting [1]).

As for `Cn1cc(Cn2c(=O)c3cc(S(=O)(=O)NC4(CF)CC4)ccc3n(Cc3cncn3C)c2=O)cn1` [Example 588, N-[1-(Fluoromethyl)cyclopropyl]-1-[(3-methylimidazol-4-yl)methyl]-3-[(1-methylpyrazol-4-yl)methyl]-2,4-dioxo-quinazoline-6-sulfonamide], the IC50 on Human Full Length PARG (read-out: PARG Biochem IC50) was determined as 19 nM; in the assay with PARG in HeLa cell line (setting [1]) it was 1500 nM.

On to `CSCCn1c(=O)n(Cc2cnn(C)c2)c(=O)c2cc(S(=O)(=O)NC3(C)CC3)ccc21` [Example 366], for which the IC50 on Human Full Length PARG (setting [3]) came to 160 nM; in the assay on PARG in HeLa cell line (setting [5]) it was 30 nM.

Regarding `Cc1ncc(Cn2c(=O)[nH]c3ccc(S(=O)(=O)NC4(C#N)CC4)cc3c2=O)s1` [Example 386, N-(1-Cyanocyclopropyl)-3-[(2-methylthiazol-5-yl)methyl]-2,4-dioxo-1H-quinazoline-6-sulfonamide], the half-inhibitory concentration (IC50) on Human Full Length PARG (setting [3]) stood at 369 nM; in the assay with PARG in HeLa cell line (setting [5]) it was 8380 nM.

Turning to `Cn1cc(Cn2c(=O)c3cc(S(=O)(=O)NC4(C(F)F)CC4)ccc3n(Cc3ccc(F)cc3)c2=O)cn1` [Example 460, N-[1-(Difluoromethyl)cyclopropyl]-1-[(4-fluorophenyl)methyl]-3-[(1-methylpyrazol-4-yl)methyl]-2,4-dioxo-quinazoline-6-sulfonamide], the IC50 turned out to be 333 nM on Human Full Length PARG (read-out: PARG Biochem IC50) and 487 nM in the assay with PARG in HeLa cell line (setting [1]).

As for `Cn1cc(Cn2c(=O)c3cc(S(=O)(=O)NC4(C)CC4)ccc3n(CC3(C)CC3(F)F)c2=O)cn1` (centres unmarked) [Example 329], the IC50 on Human Full Length PARG (setting [3]) was found to be 114 nM; in the assay with PARG in HeLa cell line (setting [5]), 129 nM.

Take `Cc1cc(Cn2c(=O)c3cc(S(=O)(=O)NC4(CF)CC4)ccc3n(Cc3nnc(C)o3)c2=O)on1` [Example 556, N-[1-(Fluoromethyl)cyclopropyl]-3-[(3-methylisoxazol-5-yl)methyl]-1-[(5-methyl-1,3,4-oxadiazol-2-yl)methyl]-2,4-dioxo-quinazoline-6-sulfonamide]: the results for the IC50 on Human Full Length PARG (read-out: PARG Biochem IC50) and in the assay with PARG in HeLa cell line (setting [1]) were 348 nM and 1030 nM, respectively.

Regarding `Cn1cc(Cn2c(=O)c3cc(S(=O)(=O)NC4(CF)CC4)ccc3n(CC3CC(F)(F)C3)c2=O)cn1` [Example 444, 1-[(3,3-Difluorocyclobutyl)methyl]-N-[1-(fluoromethyl)cyclopropyl]-3-[(1-methylpyrazol-4-yl)methyl]-2,4-dioxo-quinazoline-6-sulfonamide], the IC50 at Human Full Length PARG (read-out: PARG Biochem IC50) is 63 nM; with PARG in HeLa cell line (setting [2]), 90 nM.

Take `Cc1cc(Cn2c(=O)c3cc(S(=O)(=O)NC4(C)CC4)ccc3n(CC3CCN(C)C3)c2=O)on1` (centres unmarked) [Example 361]: the IC50 on Human Full Length PARG (setting [3]) was found to be 332 nM; in the assay on PARG in HeLa cell line (setting [5]) it was 1410 nM.

Consider `Cc1cc(Cn2c(=O)c3cc(S(=O)(=O)NC4(CF)CC4)ccc3n(Cc3nnc(C)s3)c2=O)on1` [Example 552, N-[1-(Fluoromethyl)cyclopropyl]-3-[(3-methylisoxazol-5-yl)methyl]-1-[(5-methyl-1,3,4-thiadiazol-2-yl)methyl]-2,4-dioxo-quinazoline-6-sulfonamide], for which the concentration for half-maximal inhibition (IC50) at Human Full Length PARG (read-out: PARG Biochem IC50) was determined as 175 nM; in the assay on PARG in HeLa cell line (setting [1]) it was 157 nM.

On to `Cc1cc(Cn2c(=O)c3cc(S(=O)(=O)NC4(C)CC4)ccc3n(CCC(=O)N(C)C)c2=O)on1` [Example 406, N, N-Dimethyl-3-[6-[(1-methylcyclopropyl)sulfamoyl]-3-[(3-methylisoxazol-5-yl)methyl]-2,4-dioxo-quinazolin-1-yl]propanamide], for which the IC50 is 456 nM at Human Full Length PARG (read-out: PARG Biochem IC50) and 800 nM with PARG in HeLa cell line (setting [1]).

`COc1cccc(Cn2c(=O)n(Cc3c(C)noc3C)c(=O)c3cc(S(=O)(=O)NC4(C)CC4)ccc32)c1` [Example 169]: the 50% inhibitory concentration (IC50) on Human Full Length PARG (setting [3]) is 294 nM; in the assay on PARG in HeLa cell line (setting [4]), 288 nM.

As for `Cc1cc(Cn2c(=O)n(Cc3c(C)noc3C)c(=O)c3cc(S(=O)(=O)NC4(C)CC4)ccc32)n(C)n1` [Example 166], the 50% inhibitory concentration (IC50) was found to be 131 nM at Human Full Length PARG (setting [3]) and 229 nM with PARG in HeLa cell line (setting [5]).

`CCC(=O)Cn1c(=O)n(Cc2cnn(C)c2)c(=O)c2cc(S(=O)(=O)NC3(CF)CC3)ccc21` [Example 620, N-[1-(Fluoromethyl)cyclopropyl]-3-[(1-methylpyrazol-4-yl)methyl]-2,4-dioxo-1-(2-oxobutyl)quinazoline-6-sulfonamide]: the IC50 on Human Full Length PARG (read-out: PARG Biochem IC50) was 144 nM; with PARG in HeLa cell line (setting [1]), 238 nM.

As to `COC1(Cn2c(=O)n(Cc3cc(C)no3)c(=O)c3cc(S(=O)(=O)NC4(C)CC4)ccc32)CCCC1` [Example 471, 1-[(1-Methoxycyclopentyl)methyl]-N-(1-methylcyclopropyl)-3-[(3-methylisoxazol-5-yl)methyl]-2,4-dioxo-quinazoline-6-sulfonamide], the IC50 on Human Full Length PARG (read-out: PARG Biochem IC50) was found to be 550 nM; in the assay on PARG in HeLa cell line (setting [1]), 241 nM.

Regarding `Cc1cc(Cn2c(=O)c3cc(S(=O)(=O)NC4(C)CC4)ccc3n(CC3CCO3)c2=O)on1` (centres unmarked) [Example 349], the IC50 on Human Full Length PARG (setting [3]) amounted to 252 nM; with PARG in HeLa cell line (setting [5]), 632 nM.

With `Cc1cc(Cn2c(=O)c3cc(S(=O)(=O)NC4(C)CC4)ccc3n(CC3CN(C=O)C3)c2=O)on1` [Example 425, 1-[(1-Formylazetidin-3-yl)methyl]-N-(1-methylcyclopropyl)-3-[(3-methylisoxazol-5-yl)methyl]-2,4-dioxo-quinazoline-6-sulfonamide], the values for the IC50 at Human Full Length PARG (read-out: PARG Biochem IC50) and with PARG in HeLa cell line (setting [1]) were 214 nM and 7810 nM, respectively.

As for `C#CC1(NS(=O)(=O)c2ccc3c(c2)c(=O)n(Cc2cnn(C)c2)c(=O)n3C)CC1` [Example 427, N-(1-Ethynylcyclopropyl)-1-methyl-3-[(1-methylpyrazol-4-yl)methyl]-2,4-dioxo-quinazoline-6-sulfonamide], the IC50 on Human Full Length PARG (read-out: PARG Biochem IC50) turned out to be 5400 nM; in the assay with PARG in HeLa cell line (setting [1]), 1260 nM.

Regarding `Cc1ncc(Cn2c(=O)c3cc(S(=O)(=O)NC4(C#N)CC4)ccc3n(Cc3sc(C)nc3C)c2=O)s1` [Example 401, N-(1-Cyanocyclopropyl)-1-[(2,4-dimethylthiazol-5-yl)methyl]-3-[(2-methylthiazol-5-yl)methyl]-2,4-dioxo-quinazoline-6-sulfonamide], the IC50 at Human Full Length PARG (read-out: PARG Biochem IC50) was 8 nM; in the assay with PARG in HeLa cell line (setting [1]), 101 nM.

Take `C#CCn1c(=O)n(CC#N)c(=O)c2cc(S(=O)(=O)NC3(C)CC3)ccc21` [Example 194]: the results for the IC50 at Human Full Length PARG (setting [3]) and with PARG in HeLa cell line (setting [4]) were 245 nM and 273 nM, respectively.

For the molecule `CC(C)Cn1c(=O)n(Cc2cnn(C)c2)c(=O)c2cc(S(=O)(=O)NC3(C)CC3)ccc21` [Example 295], the IC50 at Human Full Length PARG (setting [3]) amounted to 70 nM; with PARG in HeLa cell line (setting [5]) it was 85 nM.

With `Cn1cc(Cn2c(=O)[nH]c3c(C(N)=O)cc(S(=O)(=O)NC4(C)CC4)cc3c2=O)cn1` [Example 424, 6-[(1-Methylcyclopropyl)sulfamoyl]-3-[(1-methylpyrazol-4-yl)methyl]-2,4-dioxo-1H-quinazoline-8-carboxamide], the IC50 is 223 nM at Human Full Length PARG (read-out: PARG Biochem IC50) and 13000 nM in the assay with PARG in HeLa cell line (setting [1]).

Consider `Cn1cc(Cn2c(=O)c3cc(S(=O)(=O)NC4(CF)CC4)ccc3n(Cc3cnsc3)c2=O)cn1` [Example 577, N-[1-(Fluoromethyl)cyclopropyl]-1-(isothiazol-4-ylmethyl)-3-[(1-methylpyrazol-4-yl)methyl]-2,4-dioxo-quinazoline-6-sulfonamide], for which the values for the IC50 on Human Full Length PARG (read-out: PARG Biochem IC50) and in the assay on PARG in HeLa cell line (setting [2]) were 24 nM and 36 nM, respectively.

In the case of `Cn1cc(Cn2c(=O)c3cc(S(=O)(=O)NC4(C)CC4)ccc3n(CC3COC3)c2=O)cn1` [Example 297], the figures for the IC50 at Human Full Length PARG (setting [3]) and in the assay with PARG in HeLa cell line (setting [5]) were 69 nM and 272 nM, respectively.

Turning to `Cc1nnc(Cn2c(=O)c3cc(S(=O)(=O)NC4(CF)CC4)ccc3n(C)c2=O)s1` [Example 515, N-[1-(Fluoromethyl)cyclopropyl]-1-methyl-3-[(5-methyl-1,3,4-thiadiazol-2-yl)methyl]-2,4-dioxo-quinazoline-6-sulfonamide], the values for the IC50 at Human Full Length PARG (read-out: PARG Biochem IC50) and in the assay on PARG in HeLa cell line (setting [1]) were 579 nM and 698 nM, respectively.

The values above are taken from patent publication US10239843B2 (CANCER RESEARCH TECHNOLOGY LIMITED, priority 2014, dated 2019).
